For 19 compounds, Activity, IC50 and inhibition results are on record in ChEMBL document CHEMBL4831508, “Anti-inflammatory Cassane-Type Diterpenoids from the Seed Kernels of Caesalpinia sinensis” (J Nat Prod, 2021).

Broadly, the pIC50 is −log10 of the IC50, conventionally taken in molar units.

Data set [1] has as its system RAW264.7. As to the kind of experiment: Cytotoxicity against mouse RAW264.7 cells assessed as cell viability measured after 24 hrs by CCK8 assay. Particulars: raw264.7, 24 h. The format is cell-based. (In general: Formazan colour is commonly taken as a measure of viable cells.)
Data set [2] relates to RAW264.7. Put plainly: Antiinflammatory activity in mouse RAW264.7 cells assessed as inhibition of LPS-induced NO production preincubated for 3 hrs followed by LPS-stimulation and measured after 24 hrs by Griess reagent based assay. The format is functional, cell-based. A general note: The Griess reaction detects nitrite, a stable product of nitric oxide.
The test system of data set [3] is RAW264.7. As to the kind of experiment: Antiinflammatory activity in mouse RAW264.7 cells assessed as inhibition of LPS-induced iNOS enzyme activity preincubated for 3 hrs followed by LPS-stimulation and measured after 24 hrs by fluorescence plate reader assay. In kind it is functional, cell-based. Particulars: dose 3-30 µM.
The test system of data set [4] is RAW264.7. As to the kind of experiment: Antiinflammatory activity in mouse RAW264.7 cells assessed as inhibition of LPS-induced iNOSs protein expression preincubated for 3 hrs followed by LPS-stimulation and measured after 24 hrs by Western blot analysis. In kind it is functional, cell-based. The settings on record: dose 3-30 µM.

Structures are written as SMILES. pIC50: −log10 of the molar value.

With `CO[C@@]12C[C@H]3[C@@H](C[C@@H](OC(C)=O)[C@H]4C(C)(C)CCC[C@]34C)[C@@H](C)C1=CC(=O)O2`, the Activity result with RAW264.7 [1] is recorded as “Non-Toxic”. Also, the pIC50 in the data set on RAW264.7 [2] was below 4.30.
The corresponding values for `C[C@@H]1[C@@H]2C[C@@H](O)[C@H]3[C@](C)(CO)CCC[C@]3(C)[C@H]2C=C2NC(=O)C[C@@H]21` are “Non-Toxic” and 4.68.
Consider `CO[C@@]12C[C@H]3[C@@H](C[C@@H](O)[C@H]4C(C)(C)CCC[C@]34C)[C@@H](C)C1=CC(=O)O2`, for which the Activity entry in the data set on RAW264.7 [1] was “Non-Toxic”. Also, in the data set with RAW264.7 [2], the pIC50 was 4.53.
On the same counts, the results for `C[C@H]1C2=CC(=O)O[C@@H]2C[C@H]2[C@H]1C[C@@H](O)[C@H]1[C@@](C)(CO)CCC[C@]21C` are “Non-Toxic” and below 4.30.
The corresponding values for `CC(=O)O[C@@H]1C[C@H]2[C@@H](C)C3=CC(=O)O[C@@H]3C[C@@H]2[C@@]2(C)CCCC(C)(C)[C@H]12` are “Non-Toxic” and below 4.30.
The corresponding values for `CC(=O)O[C@@H]1CC(C)(C)[C@@H]2CC[C@H]3[C@@H](C)C4=CC(=O)O[C@@H]4C[C@@H]3[C@@]2(C)C1` are “Non-Toxic” and below 4.30.
Consider `CC(=O)O[C@@H]1C[C@@H]2[C@H](C=C3NC(=O)C=C3[C@]2(C)O)[C@@]2(C)CCCC(C)(C)[C@H]12`, for which the Activity result with RAW264.7 [1] is “Non-Toxic”. In addition, the pIC50 in the data set on RAW264.7 [2] was 4.95.
In the case of `CO[C@@]12C[C@H]3[C@@H](C[C@@H](O)[C@H]4[C@](C)(CO)CCC[C@]34C)[C@@H](C)C1=CC(=O)O2`, the Activity result with RAW264.7 [1] is on record as “Non-Toxic”. Besides, the pIC50 in the data set on RAW264.7 [2] was below 4.30.
Take `C[C@H]1C2=CC(=O)N(CCO)[C@@H]2C[C@H]2[C@H]1C[C@@H](O)[C@H]1C(C)(C)CCC[C@]21C`: the Activity result with RAW264.7 [1] is recorded as “Non-Toxic”. The pIC50 with RAW264.7 [2] was 4.79.
The corresponding values for `C[C@H]1C2=CC(=O)OC2=C[C@H]2[C@H]1C[C@@H](O)[C@H]1[C@](C)(CO)CCC[C@]21C` are “Non-Toxic” and 4.34.
The corresponding values for `C[C@H]1C2=CC(=O)O[C@]2(O)C[C@H]2[C@H]1C[C@@H](O)[C@H]1C(C)(C)CCC[C@]21C` are “Non-Toxic” and 4.67.
As to `C[C@H]1C2=CC(=O)O[C@@H]2C[C@H]2[C@H]1C[C@@H](O)[C@H]1C(C)(C)CCC[C@]21C`, in the data set on RAW264.7 [1], the Activity entry is on record as “Non-Toxic”. The pIC50 in the data set with RAW264.7 [2] is 4.39.
On the same counts, the results for `C[C@H]1C2=CC(=O)OC2=C[C@H]2[C@H]1C[C@@H](O)[C@H]1C(C)(C)CCC[C@]21C` are “Non-Toxic” and 4.46.
On the same counts, the results for `CC(=O)O[C@H]1CC[C@]2(C)[C@H]3C[C@H]4OC(=O)C=C4[C@H](C)[C@@H]3CC[C@H]2C1(C)C` are “Non-Toxic” and 4.30.
On the same counts, the results for `CC(=O)O[C@@H]1C[C@@H]2[C@H](C=C3NC(=O)C=C3[C@@]2(C)O)[C@@]2(C)CCCC(C)(C)[C@H]12` are “Non-Toxic” and 5.01.
With `CC(=O)O[C@@H]1C[C@H]2[C@@H](C)C3=CC(=O)OC3=C[C@@H]2[C@@]2(C)CCCC(C)(C)[C@H]12`, the Activity entry in the data set with RAW264.7 [1] is listed as “Non-Toxic”. Besides, the pIC50 with RAW264.7 [2] is below 4.30.
As to `CO[C@@]12C[C@H]3[C@@H](CC[C@H]4C(C)(C)CCC[C@]34C)[C@@H](C)C1=CC(=O)O2`, the Activity result in the data set on RAW264.7 [1] was “Non-Toxic”. Further, the pIC50 in the data set with RAW264.7 [2] is below 4.30.
The corresponding values for `C[C@@H]1C[C@H]2[C@@H]3CCC4=CC(=O)C=C[C@]4(C)[C@@]3(F)[C@@H](O)C[C@]2(C)[C@@]1(O)C(=O)CO` [DEXAMETHASONE] are “Non-Toxic” and 6.24.
With `C[C@H]1C2=CC(=O)NC2=C[C@H]2[C@H]1C[C@@H](O)[C@H]1C(C)(C)CCC[C@]21C`, the inhibition entry in the data set on RAW264.7 [3] and in the data set on RAW264.7 [4] was “Dose-Dependent Effect” each time. Further, the Activity result in the data set on RAW264.7 [1] is recorded as “Non-Toxic”. Further, in the data set on RAW264.7 [2], the pIC50 was 5.09.
